Reference: patent publication US4076704A, “Dipeptide derivatives and their production” (Shionogi & Co., Ltd., priority 1974, dated 1978)

What was measured:
Format in all cases: in vivo
DS male mice [1] = experiment: Anti-pentylenetetrazol activity; conditions: compound given orally 60 minutes prior to 125 mg/kg s.c. pentylenetetrazol, complete protection against mortality, observed 2 hours
Source text: 1. Anti-pentylenetetrazol activity
The convulsions were disregarded.

DS male mice [2] = experiment: Rotarod performance activity; conditions: fall from rod within less than 2 minutes
Method: 3. Rotarod performance activity:
(§1) This test was measured on DS male mice.
The mouse was put on a scraped rod of wood, 3 cm in diameter, turning at the rate of five rotations per minute. The mice that could remain on the rod for 3 or more minutes in successive trails were selected and placed in a group of 10 mice for each dose. If the mouse fell down from the rod within less than 2 minutes, the test compound was considered to be effective. Results were shown by ED50 [Dunham, et al.: J. Am. Pharm. Assoc., 46, 208 (1957)].

DS male mice [3] = experiment: Taming activity (inhibition of electroshock-induced fighting); conditions: compound administered 60 minutes prior, inhibition of fighting responses, 5 pairs
Method: as §1
These pairs of mice were selected in the morning and used for drug test in the afternoon. The test compound was administered to both mice of the pairs 60 minutes prior to the experiment. Results were obtained as the mean percentage of inhibition of fighting responses in a group of 5 pairs and shown by ED50 [Tedeschi, et al.: J. Pharmacol Exp. Thev., 125, 28-34 (1959)].

Row | Structure (SMILES) | Anti-pentylenetetrazol activity, ED50 (DS male mice [1]) [mg/kg] | Rotarod performance ED50 (DS male mice [2]) [mg/kg] | Taming activity ED50 (DS male mice [3]) [mg/kg]
1 | CN(C(=O)CNC(=O)CN)c1ccc(Cl)cc1C(=O)c1ccccc1F.Cl [Compound 3, 2-o-fluorobenzoyl-4-chloro-N-methyl-N^α -glycyl-glycinanilide hydrochloride] | 0.33 | 17.0 | 1.6
2 | CNC1=Nc2ccc(Cl)cc2C(c2ccccc2)=[N+]([O-])C1 [Compound 4, Chlordiazepoxide, reference compound] | – | 50.0 | –
3 | CN(C(=O)CNC(=O)CN)c1ccc(Cl)cc1C(=O)c1ccccc1Cl.O [Compound 2, 2-o-chlorobenzoyl-4-chloro-N-methyl-N^α -glycyl-glycinanilide hydrate] | 0.58 | – | 3.0
4 | CN(C(=O)CNC(=O)CN)c1ccc(Cl)cc1C(=O)c1ccccc1 [Compound 1, 2-benzoyl-4-chloro-N-methyl-N^α -glycyl-glycinanilide] | 1.0 | – | –
